{
  "source": "patent US20090298938A1",
  "about": "“USE OF SEMI SYNTHETIC ANALOGUES OF BOSWELLIC ACIDS FOR ANTICANCER ACTIVITY” (COUNCIL OF SCIENTIFIC & INDUSTRIAL RESEARCH, priority 2008, published 2009)",
  "type_in_all_cases": "cell-based, human",
  "key": {"caspase-3 in HL-60 cells": {"tested_on": "caspase-3 in HL-60 cells", "assay": "Caspase-3 activation, colorimetric, HL-60", "experimental": "FIGS. 8A-8B. Caspase activation in HL-60 cells by boswellic acid analogs. FIG. 8A depicts the results of a colorimetric evaluation of caspase-3 activation in HL-60 cells and Molt-4 cells. Cells were treated with a compound designated “c” (formula 1 compound wherein R3=COCH2CH2CH3, […] and R4+R5=O) at concentrations indicated for 6 hours. Caspase-3 inhibitor (DEVD-fmk) was added 30 min prior to the addition of caspase-3 substrate (DEVD-pNA) to the lysate. Data are mean of triplicate determinations with coefficients of variation less than 10%. […] Caspase-9 inhibitor LEHD-CHO was added 30 min prior to the addition of caspase-9 substrate to validate the specificity of caspase-9. Caspase-9 activity was measured fluorometrically. Data are a mean of triplicate determinations with a coefficient of variation of less than 10%. Caspases are important cysteine-proteases that are involved in the cleavage of DNA specifically producing 180 bp DNA fragments. The enzymes act through different signaling pathways. […] Caspase-9 activity was determined fluorometrically and caspase-3 colorimetrically using kits and the instruction provided by the manufacturer (BD pharmingen, USA). Caspase-3 activity was determined in both Molt-4 and HL-60 leukemia cells while caspase-9 was determined in HL-60 cells."}, "HL-60 cells [1]": {"tested_on": "HL-60 cells", "assay": "Inhibition of cell proliferation, MTT assay", "conditions": "HL-60, 48 hours", "experimental": "FIGS. 1A-1B. FIG. 1A depicts the main triterpenoic acid constituents of the gum exudates from Boswellia serrata, the source of boswellic acids, represented by boswellic acid, acetyl boswellic acid, 11-keto-boswellic acids, acetyl-11-keto-boswellic acid. […] Cell proliferation analysis was performed in HL-60 cells using the MTT method described in the Examples section. Cells were incubated with each formula 1 analog for 48 hours at indicated concentration and thereafter, the mitochondiral competence of MTT reduction as an index of cell viability was determined. The optical density (OD) of the untreated control was taken as 100% viability. […] This analog, as a prototype, was selected for detailed investigations. Where a=compound of formula 1, R3=COCH2CH2CH3, R1=H, R4=R5=H, b=compound of formula 1, R3=COCH2CH3, R1=H, X=H2, c=compound of formula 1, R3=COCH2CH2CH3, R1=H, R4+R5=O, d=compound of formula 1, R1=H, R3=COCH2CH3, R4=R5=H, e=compound of formula 1, R3=COCH2CH2CH3, R1=H, R4=R5=H, f=β-boswellic acid\nHuman leukemia cells HL-60 were grown in suspension in 96-well culture plate and were incubated with different concentrations of the test analogs for 48 hr. The cells were then incubated with MTT and the MTT-formazon formed is eluted with DMSO, and OD measured in ELISA Reader [Shashi et al., 2006]. The intensity of the color formed in the untreated control wells relates to 100% cell growth. […]"}, "HL-60 cells [2]": {"tested_on": "HL-60 cells", "assay": "Reduced glutathione content, fluorimetric", "conditions": "HL-60, 6 hr", "experimental": "FIG. 7. Modulation of reduced glutathione contents in HL-60 cells by boswellic acid analogs. GSH content was measured in HL-60 cells as described in the Examples section, using treated and untreated groups of about 3×10^6 cells per well and 3 mL of RPMI media. Cells were treated with buthionine sulfoxime (BSO), N-acetyl cysteine (NAC), a compound designated “c” (formula 1 compound wherein R3=COCH2CH2CH3, […] and R4+R5=O), and NAC+the compound “c”. Treatment concentrations were as indicated. […] The depleted GSH stores were restored by an anti-oxidant n-acetyl cysteine. Depletion of GSH content is an important indicator of predisposition conditions leading to cellular injury. Loss of mitochondrial functions as a result of GSH depletion may affect the energy status of the cells and therefore, is critical event in the induction of cell injury. GSH in general offers protection by scavenging reactive oxygen species and electrophiles formed within the cells. The GSH content of cells recovered back to normal or NAC control when cells were treated with sulfhydral groups antioxidant, N-acetyl cysteine (NAC). […] Reduced glutathione content was determined in 3×10^6 HL-60 cells/well/3 mL medium in a 6-well plate after incubation with SS-145 for 6 hr. Cells were washed and the reduced glutathione contents were extracted and determined using a standard fluorimetric method [[…] et al., 1976]. […]"}, "HL-60 cells [3]": {"tested_on": "HL-60 cells", "assay": "Apoptosis induction, annexin V-FITC/PI flow cytometry", "conditions": "HL-60, 15 μM, 6 hr", "experimental": "FIG. 2. Comparative efficacy of apoptosis induction: Measurement by flow cytometry. The effects of boswellic acid on the relative efficiency of induction of apoptosis and necrosis in HL-60 cells were analyzed by flow cytometry. Cells were incubated with each analog for 6 hrs and stained with annexin V-FITC labeled. The dot plots are representative of one of the two separate experiments. Values in the lower right quadrant represent the apoptotic population in the UR as post-apoptotic and in the UL as necrotic. Where a=compound of formula 1, R3=COCH2CH2CH3, […], R4=[…], b=compound of formula 1, R3=COCH2CH3R1=H, R4=[…], c=compound of formula 1, R3=COCH2CH2CH3, […], R4+R5=O, d=compound of formula 1, […], R3=COCH2CH3, R4=[…], e=compound of formula 1, R3=COCH2CH2CH3, […], R4=[…], f=β-boswellic acid. Compounds of formula 1 where […], R3=COCH2CH3R3=[…]; R3=COCH2CH2CH3, […], R4=[…] and natural β-boswellic acid produced low level of apoptotic cell population (approx. 10%) compared to compound of formula 1 where R3=COCH2CH2CH3, […], R4=[…] (17%), […], R3=COCH2CH3, R4=[…] (30%) and where R3=COCH2CH2CH3, […], R4+R5=O (23%), although the combined apoptotic and post-apoptotic population was about 32% with the last three analogs. Confirmation that boswellic acid analogs are potent inducers of apoptosis may also be obtained from DNA fragmentation assay. During the early events of apoptosis, phospholipid phosphatidyl serine of plasma membrane is externalized, which has very high affinity for annexinV antibody. Effect of a single concentration (15 μM) of each boswellic acid analogs on the relative efficiency of induction of apoptosis and necrosis in HL-60 cells was analyzed by flow cytometry. Cells were incubated with each analog for 6 hr and stained with Annexin V-FITC/PI. Camptothecin at 4 μM was used as positive control. There after, cells were washed and stained with FITC conjugated annexinV antibody and propidium iodide. The cells (10,000) were analysed by flow cytometery (BD, LSR) using ProQuest software."}},
  "data": [
    {"smiles": "CCCC(=O)OC1CCC2(C)C(CCC3(C)C2C(=O)C=C2C4C(C)C(C)CCC4(C)CCC23C)C1(C)C(=O)O", "note": "(stereo not drawn) [R3=COCH2CH2CH3, R1=H, R4+R5=O]", "values": [
      {"measurement": "caspase-3 stimulation", "setting": "caspase-3 in HL-60 cells; 50 μM", "value": "about 50%"},
      {"measurement": "caspase-3 activation", "setting": "caspase-3 in HL-60 cells; HL-60 cells, 6 hr", "value": "about 50%"},
      {"measurement": "effect on cell proliferation compared to other analogs", "setting": "HL-60 cells [1]", "value": "marginally stronger effect compared to other analogs"},
      {"measurement": "reduced glutathione (GSH) content", "setting": "HL-60 cells [2]", "value": "strongly depleted GSH content"},
      {"measurement": "apoptotic cell population", "setting": "HL-60 cells [3]", "value": 23, "unit": "%"},
      {"measurement": "combined apoptotic and post-apoptotic population", "setting": "HL-60 cells [3]", "value": "about 32%"}
    ]}
  ]
}
